Laboratory results: patent publication US11958821B2, “Phenethylamine compounds salts, polymorphic forms and methods of use thereof” (Terran Biosciences Inc., priority 2021, dated 2024)
Read-outs that look alike come from different tables or passages of the source.

Key:
[1] = Hygroscopicity of MDMA salts at 75% RH, visual assessment after 24 hours; format: physicochemical; conditions: visual assessment after exposure to 75% RH (room temp) for 24 hours
Procedure: A small amount of each salt was placed in a glass vial and exposed to 75% relative humidity for 24 hours. […] That is, the solids remained free flowing.
All materials having a unique X-ray powder diffraction (XRPD) pattern were characterized by differential scanning calorimetry (DSC), thermogravimetric analysis (TG), and ^1H nuclear magnetic resonance (NMR) spectroscopy. The hygroscopicity of each salt at 75% RH was also evaluated. The water solubility of each salt was estimated by adding water in aliquots to weighed portions of solid at room temperature while sonicating. Whether dissolution had occurred was judged by visual inspection after addition of each solvent aliquot. Solubility numbers were calculated by dividing the weight of the sample by the total amount of solvent used to dissolve the sample. The actual solubilities may be greater than the numbers calculated because of the use of solvent aliquots that were too large or because of slow dissolution rates.

[2] = Estimated solubility of MDMA salts (solvent added in aliquots, visual inspection); format: physicochemical
[3] = Dynamic vapor sorption (DVS) analysis with post-DVS XRPD; format: physicochemical; conditions: for Hygroscopicity by DVS: 25° C., 5 to 95% RH
Procedure: DVS analysis was carried out using a TA Instruments Q5000 Dynamic Vapor Sorption analyzer. The instrument was calibrated with standard weights and a sodium bromide standard for humidity. Approximately 5-25 mg of sample was loaded into a metal-coated quartz pan for analysis. The sample was analyzed at 25° C. with a maximum equilibration time of one hour in 10% relative humidity (RH) steps from 5 to 95% RH (adsorption cycle) and from 95 to 5% RH (desorption cycle). The movement from one step to the next occurred either after satisfying the equilibrium criterion of 0.01% weight change or, if the equilibrium criterion was not met, after one hour. The percent weight change values were calculated using Microsoft Excel®.

[4] = Solid-form stability of MBDB maleate forms (ball milling, drying, interconversion slurry); format: physicochemical
Procedure: During the screen, a single crystal Maleate 1 of sufficient size and quality was obtained from a vapor diffusion experiment with ethanol and hexane. The crystal structure is reported elsewhere but the data confirmed the anhydrous/unsolved nature of the material. […] Two new crystalline forms of MBDB Maleate were observed during the screening designated as MBDB Maleate 2 and MBDB Maleate 3 (FIG. 96, 97). Additional characterization of these samples was conducted to better understand the nature of the materials produced, as shown below. MBDB Maleate 2 was generated once from a cooling crystallization from dioxane. The proton nuclear magnetic resonance (NMR) spectrum was consistent with a monomaleate salt of MBDB and contained residual dioxane. Only a limited amount of material was recovered so the only additional characterization that could be completed was differential scanning calorimetry (DSC). The DSC thermogram appears consistent with an anhydrous/unsolvated form with a likely melt at 96° C. (FIG. 100). […] An attempt was made to reproduce Maleate 2 using the same conditions and seeds of Maleate 2. PXRD analysis of the recovered solids however was consistent with Maleate 1. MBDB Maleate 3 was isolated from an evaporation experiment involving chloroform and ethyl acetate. NMR analysis of the material was consistent with a mono-maleate salt of MBDB. […]

[5] = cited from earlier work
[6] = cited from earlier work; remark: listed apart in the source
[7] = Physical stability of MBDB salts at 40° C./75% RH; format: physicochemical
Procedure: During the screen, a single crystal Maleate 1 of sufficient size and quality was obtained from a vapor diffusion experiment with ethanol and hexane. The crystal structure is reported elsewhere but the data confirmed the anhydrous/unsolved nature of the material. […] Two new crystalline forms of MBDB Maleate were observed during the screening designated as MBDB Maleate 2 and MBDB Maleate 3 (FIG. 96, 97). Additional characterization of these samples was conducted to better understand the nature of the materials produced, as shown below. MBDB Maleate 2 was generated once from a cooling crystallization from dioxane. The proton nuclear magnetic resonance (NMR) spectrum was consistent with a monomaleate salt of MBDB and contained residual dioxane. Only a limited amount of material was recovered so the only additional characterization that could be completed was differential scanning calorimetry (DSC). The DSC thermogram appears consistent with an anhydrous/unsolvated form with a likely melt at 96° C. (FIG. 100). […] An attempt was made to reproduce Maleate 2 using the same conditions and seeds of Maleate 2. PXRD analysis of the recovered solids however was consistent with Maleate 1. MBDB Maleate 3 was isolated from an evaporation experiment involving chloroform and ethyl acetate. NMR analysis of the material was consistent with a mono-maleate salt of MBDB. Thermal analysis was consistent with an anhydrous/unsolvated material with a likely melting point of 73° C. (FIG. 101). […] No additional characterization was completed on this sample due to the limited amount of material that was recovered.

[8] = cited from earlier work; remark: listed apart in the source
[9] = test system: Male Sprague-Dawley rats; assay: Rat elevated zero-maze study with MDAI and chlordiazepoxide; format: in vivo
Procedure: Three rats from the vehicle group, 3 rats from the 2.5 mg/kg MDAI group, and 3 rats from the CDP group were tested on a separate day from the other rats.

[10] = test system: participants diagnosed with at least moderate post-traumatic stress disorder (PTSD); assay: Double-blind, randomized, placebo-controlled clinical trial of MDAI-assisted psychotherapy in PTSD; format: in vivo, human
Procedure: A multicenter, randomized, double-blind, placebo-controlled trial is conducted to assess the efficacy and safety of MDAI-assisted psychotherapy versus psychotherapy with placebo control in participants diagnosed with at least moderate post-traumatic stress disorder (PTSD).
This multicenter, randomized, double-blind, placebo-controlled trial is conducted at various sites in the United States with IRB approval from each study site. A flexible dose of MDAI hydrochloride salt or placebo, followed by a supplemental half-dose unless contraindicated by patient's previous response or medical history, is also administered during the Treatment Period with psychotherapy in at least 3 blinded monthly Experimental Sessions. The Supplemental Dose extends the duration of drug effects on the participants during an Experimental Session. An optional Risk Evaluation and Mitigation Strategy (REMS) Protocol may be implemented for MDAI and placebo-groups. The Treatment Period lasts for approximately 12 weeks. During the Treatment Period, each Experimental Session is followed by three Intervening Sessions of non-drug psychotherapy. Each Experimental Session involves an overnight stay. The Primary Outcome measure, the change in Clinician Administered PTSD Scale for DSM-5 (CAPS-5), is determined by a blinded Independent Rater (IR) pool multiple times throughout the study. The study consists of separate periods for each participant. Initially, prospective participants undergo a Screening Period involving an initial eligibility assessment, a medical history intake, informed consent, and enrollment of eligible participants. Next, a Preparation Period is undertaken for enrolled participants involving medication tapering and clinical baseline assessments to confirm each participant meets enrollment criteria. As part of the Preparation Period, a detailed assessment of co-morbidities to PTSD is recorded. Participants may remain on prescribed courses of selective serotonin reuptake inhibitor (SSRI) or serotonin and norepinephrine reuptake inhibitor (SNRI) treatment. Dosages and/or frequency of administration of a prescribed SSRI or SNRI may be adjusted to fit within study parameters. Participants may be required to taper a prescribed course of medication in order to maintain eligibility within the study. The Treatment Period consists of three monthly Experimental Sessions and associated Intervening Sessions of integrative behavioral psychotherapy. The Treatment Period lasts approximately 12 weeks. Following the Treatment Period is a Follow-up Period and Study Conclusion. During the Follow-up Period and Study Conclusion, participants complete 4 weeks with no study visits, followed by a Study Conclusion visit.
This study compares the effects of three blinded Experimental Sessions of psychotherapy in combination with flexible doses of MDAI or placebo administered as described below. Non-drug preparatory and intervening psychotherapy sessions are also included. Patient's weight is determined for dosage calculation. Initial dose is 100 mg unless this will result in a dosage of less than 1.5 mg/kg of patient weight. Initial dose thereby adjusted upward in 50 mg increments to deliver the lowest dose possible of at least 1.5 mg/kg of patient weight. Initial dose for Experimental Session 2 and 3 is cumulative dose calculated by adding the initial dose plus REMS protocol dose used the previous Experimental Session for each patient.
Randomization occurs prior to the initiation of Experimental Session 1. […]

[11] = oral, people, MDAI Dosages (psychonautwiki)

CNC(C)Cc1ccc2c(c1)OCO2.CNC(C)Cc1ccc2c(c1)OCO2.O=C(O)/C=C/C(=O)O (stereo not shown) [Fumarate]
Hygroscopic at 75% RH? [1]: no evidence of hygroscopicity and No
Solubility ([2]; 1,4-dioxane): <1000 µg/mL
Solubility ([2]; 1:1 MeOH:chloroform (CHCl3)): 35000 µg/mL
Solubility ([2]; 2-propanol (IPA)): <1000 µg/mL
Solubility ([2]; 95:5 ACN:water): 4000 µg/mL
Solubility ([2]; 95:5 EtOH:water): 15000 µg/mL
Solubility ([2]; 95:5 IPA:water): 5000 µg/mL
Solubility ([2]; 95:5 THF:water): 14000 µg/mL
Solubility ([2]; 95:5 acetone:water): 2000 µg/mL
Solubility ([2]; 95:5 dioxane:water): 6000 µg/mL
Solubility ([2]; acetone): <1000 µg/mL
Solubility ([2]; acetonitrile (ACN)): <1000 µg/mL
Solubility ([2]; dichloromethane (DCM)): <1000 µg/mL
Solubility ([2]; diethyl ether (Et2O)): <1000 µg/mL
Solubility ([2]; ethanol (EtOH)): 4000 µg/mL
Solubility ([2]; ethyl acetate (EtOAc)): <1000 µg/mL
Solubility ([2]; methanol (MeOH)): 47000 µg/mL
Solubility ([2]; tetrahydrofuran (THF)): <1000 µg/mL
Solubility ([2]; water): 260000 µg/mL
Hygroscopicity by DVS ([3]; listed as MDMA Hemi-Fumarate): Slightly hygroscopic
Hygroscopicity by DVS ([3]; listed as MDMA hemi-fumarate): slightly hygroscopic
Post-DVS XRPD (form change) ([3]; solids after DVS analysis): Unchanged

CCC(Cc1ccc2c(c1)OCO2)NC.O=C(O)/C=C\C(=O)O (stereo not shown) [Maleate 3]
Form stability on drying (PXRD) ([4]; mixture of Maleate 3 and Maleate 1 dried at 46° C. overnight, recovered solids Maleate 1): metastable under these conditions

CNC(C)Cc1ccc2c(c1)OCO2.O=C(O)/C=C\C(=O)O (stereo not shown) [Maleate Form 1]
Hygroscopic at 75% RH? [1]: No

CNC(C)Cc1ccc2c(c1)OCO2.O=C(O)/C=C\C(=O)O (stereo not shown) [Maleate Form 2]
Hygroscopic at 75% RH? [1]: No

CNC(C)Cc1ccc2c(c1)OCO2.CNC(C)Cc1ccc2c(c1)OCO2.O=C(O)[C@@H](O)[C@H](O)[C@H](O)[C@@H](O)C(=O)O (stereo not shown) [Galactarate (Mucate)]
Hygroscopic at 75% RH? [1]: no evidence of hygroscopicity and No

CCC(Cc1ccc2c(c1)OCO2)NC (stereo not shown) [MBDB, 1-(benzo[d][1,3]dioxol-5-yl)-N-methylbutan-2-amine]
Effects: Coming Down, Time After Dose ([5]; Duration of effects of MBDB in people, adapted from PiHKAL 1991): ~90 min
Reported time to achieve peak effects ([5]; after dosing): 0.75 to 1 h
Oral MBDB Dose, Drug Activity Level: Very Strong ([5]; oral, people): ≥350 mg
Oral dose for Drug Activity Level Threshold [6, 11]: 40 mg
Oral dose for drug activity level Very Strong [6, 11]: ≥300 mg

CCC(Cc1ccc2c(c1)OCO2)NC.O=C(O)/C=C\C(=O)O (stereo not shown) [Maleate 1]
Hygroscopicity by DVS [3]: minimal water sorption over RH range
DVS weight gain ([3]; at 95% RH, listed as MBDB Maleate Form1): 0.6% wt gain
Hygroscopic? ([3]; based on moisture uptake at 95% observed during DVS analysis): Slightly
Physical stability by PXRD ([7]; 40° C./75% RH for 50 days): no change
Physical Stability ([7]; 40° C./75% RH overnight): No change
Physical Stability ([7]; after 1 day at 40° C./75% RH): No visible change
Stability to ball milling (recovered solids vs starting material) ([4]; ball milled): stable under mechanical stressing

CNC(C)Cc1ccc2c(c1)OCO2.O=C(O)CCC(=O)O (stereo not shown) [Succinate]
Hygroscopic at 75% RH? [1]: No

CCNC(C)Cc1ccc2c(c1)OCO2 (stereo not shown) [MDE, N-ethyl-3,4-methylenedioxyamphetamine]
Reported time to achieve peak effects ([8]; after dosing): 1 to 2 h
Oral dose for drug activity level Very Strong ([8]; oral): ≥225 mg

NC1Cc2cc3c(cc2C1)OCO3 [MDAI, 5,6-methylenedioxy-2-aminoindane]
Percentage of time in the open arms (% TO) ([9]; 0.625 mg/kg ip): numerical increase in % TO that was greater than vehicle or any other dose of MDAI
Percentage of time in the open arms (% TO) ([9]; doses too low or too high (0.15, 0.31, 1.25, 2.5)): opposite effect on % TO
Total open arm entries ([9]; higher and lower doses): trended towards an anxiogenic effect
Total open arm entries ([9]; middle dose): increase vs placebo that trended towards significance
Daytime sleepiness (ESS) ([10]; Study Conclusion): significant improvement in lessening daytime sleepiness
Clinician-rated functional impairment score (SDS) ([10]; Study Conclusion, vs placebo): significant improvement in clinician-rated functional impairment score
Depression (HAM-D) ([10]; Study Conclusion, vs placebo): significant improvement depression
Change in CAPS-5 assessment ([10]; Study Conclusion, vs placebo, hydrochloride salt with psychotherapy): significant mean reduction in CAPS-assessment compared to the placebo group
Adverse anxiogenic incidents ([10]; vs placebo-treated controls): without a significant increase in adverse anxiogenic incidents
Reported time to achieve peak effects ([6]; after dosing): 0.75 to 2 h

CNC(C)Cc1ccc2c(c1)OCO2.O=P(O)(O)O.O=P(O)(O)O (stereo not shown) [Phosphate]
Hygroscopic at 75% RH? [1]: no evidence of hygroscopicity and No
